The values that follow come from publication PMC3199943, “Screening the MayBridge Rule of 3 Fragment Library for Compounds That Interact with the Trypanosoma brucei myo-Inositol-3-Phosphate Synthase and/or Show Trypanocidal Activity” (Molecular Biology International, 2011).

In one experiment the test system is A549 cells. Put plainly: Cytotoxicity against A549 cells, Alamar Blue. Format: cell-based. Particulars: Supplementary Table 1, compound 0.5 mM, percentage of controls (n=1); for viability at 500 µM: Homo sapiens, A549, 65 h. In outline: (§1)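 Seed HeLa/A549 at 2 × 10^4 cells/well in DMEM/10% FCS/2 mM L-Gln; treat ~65 h; add Alamar Blue, 5 h more.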
In general terms: Resazurin is reduced to fluorescent resorufin, in cell work by metabolically active cells.

The next experiment relates to HeLa cells. Put plainly: cells. The note with it: for viability at 500 µM: Homo sapiens, HeLa, 65 h; for HeLa Cells Alamar Blue: Supplementary Table 1, compound 0.5 mM, percentage of controls, mean ± SD (n=3) or SE (n=2). In outline:
as §1

In another experiment the target is T1, TbINO1 (Trypanosoma brucei brucei, UniProt Q5QQ46).
T1 sequence (Q5QQ46 1-528): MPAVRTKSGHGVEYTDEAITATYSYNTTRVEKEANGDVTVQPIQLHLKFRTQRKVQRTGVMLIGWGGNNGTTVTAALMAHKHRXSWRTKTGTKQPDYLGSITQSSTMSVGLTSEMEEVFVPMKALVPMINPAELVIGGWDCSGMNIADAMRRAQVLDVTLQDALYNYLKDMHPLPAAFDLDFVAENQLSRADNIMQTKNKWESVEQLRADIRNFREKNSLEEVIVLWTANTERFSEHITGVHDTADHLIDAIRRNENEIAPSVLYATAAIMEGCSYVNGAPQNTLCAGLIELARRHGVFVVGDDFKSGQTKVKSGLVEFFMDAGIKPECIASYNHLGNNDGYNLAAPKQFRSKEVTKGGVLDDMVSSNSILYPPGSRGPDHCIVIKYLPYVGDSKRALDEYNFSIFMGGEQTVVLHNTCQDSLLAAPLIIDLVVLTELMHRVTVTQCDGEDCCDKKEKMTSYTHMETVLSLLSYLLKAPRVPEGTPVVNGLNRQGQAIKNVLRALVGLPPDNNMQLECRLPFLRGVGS
Put plainly: biochemical. Format: binding.

The mark [1] stands for this setting: read-out: HeLa Cells Alamar Blue.
Setting [2] is: read-out: Tb Ino1 Tm Shift [˚C].
[3] abbreviates: Supplementary Table 1, compound 1mM, mean ± SD from Boltzman curve fitting.

Read-outs that look alike come from different tables or passages of the source.

For the molecule `Nc1cccc(-c2ccsc2)c1` [compound 404, 3‐thien‐3‐ylaniline], the viability at 500 µM in the experiment with A549 cells stood at 83.3%; in the experiment with HeLa cells (setting [1]) it was 89.4 ± 17.7%. For the same molecule, the ΔTm at 1000 µM on TbINO1 (setting [2]) was found to be 0.17 ± 0.05 °C.
Consider `O=C1CC(C(=O)O)c2ccccc21` (stereo not shown) [compound 409, 3‐oxoindane‐1‐carboxylic acid], for which the viability at 500 µM amounted to 92% in the experiment on A549 cells and 107 ± 10.9% in the experiment on HeLa cells (setting [1]). The ΔTm at 1000 µM at TbINO1 (setting [2]) amounted to 0.03 ± 0.07 °C.
The like results for `O=C(O)Cc1coc2ccccc12` [compound 410, benzo[b]furan‐3‐ylacetic acid] were, in that order, 97.4%, 54.1 ± 10.3% and 0.8 ± 0.07 °C.
The like results for `NCc1ccc(N2CCCC2)cc1` [compound 414, [4‐(1‐pyrrolidinyl)phenyl]methanamine] were, in that order, 96.8%, 68 ± 13.7% and 0.14 ± 0.07 °C.
The like results for `Nc1cccc(CN2CCCC2)c1` [compound 415, 3‐(pyrrolidin‐1‐ylmethyl)aniline] were, in that order, 107%, 57.8 ± 4.5% and 0.34 ± 0.06 °C.
Regarding `Nc1ccccc1OC(F)(F)F` [compound 418, 2‐(trifluoromethoxy)aniline], the viability at 500 µM came out at 97.9% with A549 cells and 99.1 ± 14.1% in the experiment on HeLa cells (setting [1]). In addition, the ΔTm at 1000 µM at TbINO1 (setting [2]) came out at 0.14 ± 0.07 °C.
The like results for `Nc1cc(F)ccc1-n1ccnc1` [compound 420, 5‐fluoro‐2‐(1H‐imidazol‐1‐yl)aniline] were, in that order, 100%, 98.2 ± 10.9% and 0.36 ± 0.07 °C.
Taken in the same sequence, the figures for `OCc1ccc(N2CCCC2)cc1` [compound 427, [4‐(1‐pyrrolidinyl)phenyl]methanol] were 64.2%, 59.8 ± 14.4% and 0.35 ± 0.06 °C.
Taken in the same sequence, the figures for `OCc1cccc(N2CCCC2)c1` [compound 428, (3‐pyrrolidin‐1‐ylphenyl)methanol] were 81.2%, 12.6 ± 5.6% and 0.44 ± 0.07 °C.
For the molecule `CC(=O)c1ccc2c(c1)OCCO2` [compound 430, 1‐(2,3‐dihydro‐1,4‐benzodioxin‐6‐yl)ethan‐1‐one], in the experiment with A549 cells, the “A549 Cells Alamar Blue” value is 101.8 percentage of controls. In addition, the “HeLa Cells Alamar Blue” value in the experiment with HeLa cells is given as 91.1 ± 12.8 percentage of controls. Moreover, at TbINO1 (setting [3]), the “Tb Ino1 Tm Shift [˚C]” value amounted to 0.13 ± 0.08 °C.
Regarding `OCc1cccnc1N1CCCC1` [compound 440, [2‐(1‐pyrrolidinyl)‐3‐pyridinyl]methanol], the viability at 500 µM was 94% with A549 cells and 74.6 ± 7.5% with HeLa cells (setting [1]). The ΔTm at 1000 µM on TbINO1 (setting [2]) was 0.78 ± 0.08 °C.
`Nc1cccc(N2CCOCC2)c1` [compound 441, 3‐morpholin‐4‐ylaniline]: the viability at 500 µM in the experiment with A549 cells was 85%; with HeLa cells (setting [1]), 77.7 ± 16.7%. Also, the ΔTm at 1000 µM on TbINO1 (setting [2]) was found to be 0.27 ± 0.08 °C.
Regarding `O=C(O)c1ccc2ncsc2c1` [compound 444, 1,3‐benzothiazole‐6‐carboxylic acid], the viability at 500 µM was determined as 63.5% in the experiment on A549 cells and 92 ± 9.7% with HeLa cells (setting [1]). Further, the ΔTm at 1000 µM on TbINO1 (setting [2]) came to 0.73 ± 0.06 °C.
In the case of `O=C(O)c1cc2cccnc2s1` [compound 445, thieno[2,3‐b]pyridine‐2‐carboxylic acid], the viability at 500 µM with A549 cells was determined as 45.2%; in the experiment with HeLa cells (setting [1]), 88 ± 8.1%. For the same molecule, on TbINO1 (setting [2]), the ΔTm at 1000 µM was 0.61 ± 0.08 °C.
On to `Cn1nc(-c2cccs2)cc1N` [compound 450, 1‐methyl‐3‐(2‐thienyl)‐1H‐pyrazol‐5‐amine], for which the “A549 Cells Alamar Blue” value with A549 cells was 90.7 percentage of controls. Further, the “HeLa Cells Alamar Blue” value in the experiment with HeLa cells is 89.3 ± 5.5 percentage of controls. For the same molecule, the “Tb Ino1 Tm Shift [˚C]” value on TbINO1 (setting [3]) is 1.1 ± 0.06 °C.
Taken in the same sequence, the figures for `Cc1ccc(C)c(C(O)C(=O)O)c1` (stereo not shown) [compound 454, 2‐(2,5‐dimethylphenyl)‐2‐hydroxyacetic acid] were 60.8 percentage of controls, 96.8 ± 12.7 percentage of controls and 0.02 ± 0.06 °C.
In the case of `OCc1ccc(-c2ccco2)s1` [compound 458, [5‐(2‐furyl)thien‐2‐yl]methanol], the viability at 500 µM with A549 cells is 73.6%; in the experiment on HeLa cells (setting [1]) it was 94 ± 12.5%. The ΔTm at 1000 µM at TbINO1 (setting [2]) came to 0.6 ± 0.02 °C.
Taken in the same sequence, the figures for `CC(=O)CSc1ccc(C)cc1` [compound 460, 1‐[(4‐methylphenyl)thio]acetone] were 96.9%, 97 ± 2.5% and 0.46 ± 0.07 °C.
As for `Cc1nn(C)c2sc(CO)cc12` [compound 467, (1,3‐dimethyl‐1H‐thieno[2,3‐c]pyrazol‐5‐yl)methanol], in the experiment on A549 cells, the “A549 Cells Alamar Blue” value was 70.7 percentage of controls. The “HeLa Cells Alamar Blue” value with HeLa cells is 67.5 ± 16.4 percentage of controls. For the same molecule, on TbINO1 (setting [3]), the “Tb Ino1 Tm Shift [˚C]” value came to 0.35 ± 0.09 °C.
On to `N#Cc1cc(N)ccc1-n1cccc1` [compound 471, 5‐amino‐2‐(1H‐pyrrol‐1‐yl)benzonitrile], for which the viability at 500 µM in the experiment with A549 cells worked out at 81.4%; with HeLa cells (setting [1]), 89.3 ± 18.8%. At TbINO1 (setting [2]), the ΔTm at 1000 µM is 0.1 ± 0.08 °C.
In the case of `OCc1cc(F)cc2c1OCOC2` [compound 476, (6‐fluoro‐4H‐1,3‐benzodioxin‐8‐yl)methanol], the “A549 Cells Alamar Blue” value in the experiment with A549 cells was 78.9 percentage of controls. Besides, the “HeLa Cells Alamar Blue” value with HeLa cells was 102.6 ± 9.4 percentage of controls. In addition, the “Tb Ino1 Tm Shift [˚C]” value at TbINO1 (setting [3]) amounted to 0.01 ± 0.07 °C.
Take `N#Cc1cc(-c2ccccc2)oc1N` [compound 477, 2‐amino‐5‐phenyl‐3‐furonitrile]: the viability at 500 µM with A549 cells was 97.4%; in the experiment on HeLa cells (setting [1]), 98.3 ± 18.6%. Also, on TbINO1 (Supplementary Table 1, compound 1mM, mean ± SD from Boltzman curve fitting, read-out: Tb Ino1 Tm Shift [˚C]), the ΔTm at 1000 µM was 0.04 ± 0.1 °C.
In the case of `O=C(O)CCC(=O)c1cccs1` [compound 478, 4-oxo-4-(2-thienyl)butanoic acid], the viability at 500 µM in the experiment on A549 cells turned out to be 92.3%; with HeLa cells (setting [1]), 106 ± 9.3%; with HeLa cells (read-out: HeLa Cells Alamar Blue (% survival)), 106 ± 9.3%. The ΔTm at 1000 µM on TbINO1 (read-out: TbIno1 Tm shift [°C]) was found to be 2.58 ± 0.05 °C.
Turning to `O=C(O)c1cc2sccc2s1` [compound 479, thieno[3,2‐b]thiophene‐2‐carboxylic acid], the figures for the viability at 500 µM with A549 cells and in the experiment with HeLa cells (setting [1]) were 102% and 109 ± 11.4%, respectively. Besides, the ΔTm at 1000 µM at TbINO1 (setting [2]) worked out at 0.21 ± 0.07 °C.
For `COc1cccc(OC)c1SC` [compound 481, 1,3‐dimethoxy‐2‐(methylthio)benzene], the viability at 500 µM was 103% in the experiment with A549 cells and 104 ± 17.6% in the experiment on HeLa cells (setting [1]). The ΔTm at 1000 µM at TbINO1 (setting [2]) came to 0.07 ± 0.08 °C.
The like results for `COC(=O)c1ccc(C)c(Cl)c1` [compound 484, methyl 3‐chloro‐4‐methylbenzoate] were, in that order, 120%, 112 ± 12% and 0.1 ± 0.07 °C.
The like results for `Cc1csc2ncnc(Cl)c12` [compound 486, 4‐chloro‐5‐methylthieno[2,3‐d]pyrimidine] were, in that order, 111%, 101 ± 12.2% and 0.24 ± 0.07 °C.
Taken in the same sequence, the figures for `CC1(C)C=Cc2cc(C#N)ccc2O1` [compound 487, 2,2‐dimethyl‐2H‐chromene‐6‐carbonitrile] were 108%, 112 ± 14.6% and 0 °C.
Take `Cc1nccc(-c2cccc(N)c2)n1` [compound 493, 3‐(2‐methylpyrimidin‐4‐yl)aniline]: the viability at 500 µM with A549 cells came out at 92.6%; in the experiment on HeLa cells (setting [1]), 65.9 ± 17%. The ΔTm at 1000 µM on TbINO1 (setting [2]) is 0.15 ± 0.07 °C.
Taken in the same sequence, the figures for `CCOC(=O)Cc1csc(C)n1` [compound 494, ethyl 2‐(2‐methyl‐1,3‐thiazol‐4‐yl)acetate] were 120%, 103 ± 17.9% and 0.99 ± 0.08 °C.
On to `Cl.NCc1ccc2c(c1)CCO2` [compound 496, 2,3‐dihydrobenzo[b]furan‐5‐ylmethylamine hydrochloride], for which the “A549 Cells Alamar Blue” value in the experiment on A549 cells is listed as 96.7 percentage of controls. The “HeLa Cells Alamar Blue” value in the experiment with HeLa cells was 99.8 ± 15.5 percentage of controls. Moreover, the “Tb Ino1 Tm Shift [˚C]” value on TbINO1 (setting [3]) stood at 0.06 ± 0.08 °C.
For `Nc1cccc(Oc2ccccn2)c1` [compound 506, 3‐(pyridin‐2‐yloxy)aniline], the viability at 500 µM is 72.5% in the experiment with A549 cells and 99.2 ± 16.2% with HeLa cells (setting [1]). The ΔTm at 1000 µM on TbINO1 (setting [2]) is 0.23 ± 0.09 °C.
The like results for `COc1ccc(Cl)cc1C(=O)O` [compound 508, 5‐chloro‐2‐methoxybenzoic acid] were, in that order, 101%, 78.4 ± 17.3% and 0.07 ± 0.07 °C.
The like results for `N#Cc1ccccc1OC(F)(F)F` [compound 509, 2‐(trifluoromethoxy)benzonitrile] were, in that order, 110%, 106 ± 16.9% and 0.01 ± 0.08 °C.
